Read-outs that look alike come from different tables or passages of the source.
Columns and labels:
[1] = test system: positive (hedonic) 50-kHz ultrasonic vocalizations (USVs); assay: Positive emotional learning (PEL) test; assay type: in vivo, rats; details: rat, PO, 1 h after administration
Description: Experiments were conducted as described in Burgdorf et al., “The effect of selective breeding for differential rates of 50-kHz ultrasonic vocalizations on emotional behavior in rats,” Devel. Psychobiol., 51:34-46 (2009). Rat 50-kHz ultrasonic vocalization (hedonic USVs) is a validated model for the study of positive affective state and is best elicited by rough-and-tumble play.
The PEL assay measures the acquisition of positive (hedonic) 50-kHz ultrasonic vocalizations (USVs) to a social stimulus, heterospecific rough and tumble play stimulation. Heterospecific rough-and-tumble play stimulation was administered by the experimenter's right hand. One hour after administration of test compound or vehicle negative control (0.5% sodium carboxymethyl cellulose in 0.9% sterile saline vehicle), animals received 3 min of heterospecific rough-and-tumble play that consisted of alternating 15 sec blocks of heterospecific play and 15 sec of no-stimulation. High frequency ultrasonic vocalizations (USVs) were recorded and analyzed by sonogram with Avasoft SASlab Pro (Germany) as previously described by Burgdorf et al., “Positive emotional learning is regulated in the medial prefrontal cortex by GluN2B-containing NMDA receptors,” Neuroscience, 192:515-523 (2011). Frequency modulated 50-kHz US V s that occurred during each of the no-stimulation periods were quantified to measure PEL. Animals were not habituated to play stimulation before testing. Positive emotional learning was measured during the conditioned stimulus (CS) trials preceding the tickle unconditioned stimulus (UCS) trials. Animals received 15 second trials consisting of 6 CS and 6 UCS trials each (3 min total).
The table below summarizes the findings. As each experiment includes its own vehicle group, an example (typical) vehicle score is shown. Max effect (mean number of 50 kHz USVs per 15 seconds) is reported as ∧: <6.0; *: 6.0-7.6; **: 7.7-10; ***: 10.1-20.

[2] = molecular target: T1, NMDAR2B (Homo sapiens, UniProt Q13224); assay: [3H]MK-801 binding, NMDAR2B expressing HEK cell membranes; assay type: biochemical; details: 50 μM glutamate; for EC50: read-out: NMDAR2B B: log EC50 (converted); for Emax: read-out: NMDAR2B A: % maximal [3H]MK-801 binding relative to 1 mM glycine
T1 construct: expressed in transfected cells; host or cells: HEK cells (membrane extract)
T1 sequence (Q13224 27-1484, species assumed, other chains not shown): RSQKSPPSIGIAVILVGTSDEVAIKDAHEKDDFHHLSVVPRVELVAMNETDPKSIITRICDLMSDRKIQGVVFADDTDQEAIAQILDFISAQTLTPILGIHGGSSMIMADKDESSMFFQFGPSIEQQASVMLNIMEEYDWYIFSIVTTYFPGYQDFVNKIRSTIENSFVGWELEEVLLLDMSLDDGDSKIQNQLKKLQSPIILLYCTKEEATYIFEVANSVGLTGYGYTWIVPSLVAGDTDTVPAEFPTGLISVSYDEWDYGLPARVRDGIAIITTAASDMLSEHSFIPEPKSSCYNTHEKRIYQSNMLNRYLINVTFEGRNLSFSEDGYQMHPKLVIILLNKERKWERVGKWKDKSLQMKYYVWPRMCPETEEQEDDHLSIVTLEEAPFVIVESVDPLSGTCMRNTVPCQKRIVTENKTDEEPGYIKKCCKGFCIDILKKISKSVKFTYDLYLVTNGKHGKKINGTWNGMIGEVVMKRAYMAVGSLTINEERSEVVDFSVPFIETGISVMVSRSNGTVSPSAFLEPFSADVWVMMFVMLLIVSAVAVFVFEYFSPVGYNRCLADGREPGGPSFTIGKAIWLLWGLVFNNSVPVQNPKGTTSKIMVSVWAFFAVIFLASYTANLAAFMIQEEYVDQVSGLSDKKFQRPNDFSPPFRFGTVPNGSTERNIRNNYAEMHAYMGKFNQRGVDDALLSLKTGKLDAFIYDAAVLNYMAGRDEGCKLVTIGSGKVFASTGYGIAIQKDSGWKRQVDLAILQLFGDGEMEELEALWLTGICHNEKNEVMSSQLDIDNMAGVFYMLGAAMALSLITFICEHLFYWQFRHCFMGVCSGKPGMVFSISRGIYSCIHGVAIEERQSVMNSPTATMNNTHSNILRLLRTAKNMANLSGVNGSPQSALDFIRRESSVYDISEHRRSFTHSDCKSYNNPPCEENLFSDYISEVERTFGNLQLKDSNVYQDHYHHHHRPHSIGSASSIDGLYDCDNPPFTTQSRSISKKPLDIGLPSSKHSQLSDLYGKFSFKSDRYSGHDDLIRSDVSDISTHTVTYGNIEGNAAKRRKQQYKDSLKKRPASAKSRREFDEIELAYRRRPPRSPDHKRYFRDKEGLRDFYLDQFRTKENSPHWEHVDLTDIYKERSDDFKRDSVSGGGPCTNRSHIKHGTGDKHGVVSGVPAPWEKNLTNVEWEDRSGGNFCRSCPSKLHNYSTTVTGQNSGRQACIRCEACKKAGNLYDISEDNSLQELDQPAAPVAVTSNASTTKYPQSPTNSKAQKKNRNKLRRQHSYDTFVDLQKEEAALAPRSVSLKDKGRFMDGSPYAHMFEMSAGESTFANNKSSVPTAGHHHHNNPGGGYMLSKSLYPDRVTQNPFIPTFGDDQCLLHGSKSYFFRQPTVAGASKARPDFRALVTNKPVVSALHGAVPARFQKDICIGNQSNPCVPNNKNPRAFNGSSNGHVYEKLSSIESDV
Outline: (§1)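 HEK membranes expressing NMDAR2A, 2B, 2C or 2D (300 μg protein) were preincubated 15 min at 25 °C with 50 μM glutamate and compound (1×10^−15–1×10^−7 M), then 15 min with 0.3 μCi [3H]MK-801 (nonequilibrium) before filtration. Baseline-subtracted binding was normalized to 1 mM glycine, yielding EC50 and % maximal activity.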

[3] = Oral pharmacokinetics (plasma, brain, CSF); details: rat, per os, 10 mg/kg
Description: Plasma, brain, and CSF samples were analyzed at various time points over a 24 hour period.

[4] = molecular target: T2, NMDAR2A (Homo sapiens, UniProt Q12879); assay: [3H]MK-801 binding, NMDAR2A expressing HEK cell membranes; assay type: biochemical; details: 50 μM glutamate; for Emax: read-out: NMDAR2A A: % maximal [3H]MK-801 binding relative to 1 mM glycine; for EC50: read-out: NMDAR2A B: log EC50 (converted)
T2 construct: expressed in transfected cells; host or cells: HEK cells (membrane extract)
T2 sequence (Q12879 23-1464, species assumed, other chains not shown): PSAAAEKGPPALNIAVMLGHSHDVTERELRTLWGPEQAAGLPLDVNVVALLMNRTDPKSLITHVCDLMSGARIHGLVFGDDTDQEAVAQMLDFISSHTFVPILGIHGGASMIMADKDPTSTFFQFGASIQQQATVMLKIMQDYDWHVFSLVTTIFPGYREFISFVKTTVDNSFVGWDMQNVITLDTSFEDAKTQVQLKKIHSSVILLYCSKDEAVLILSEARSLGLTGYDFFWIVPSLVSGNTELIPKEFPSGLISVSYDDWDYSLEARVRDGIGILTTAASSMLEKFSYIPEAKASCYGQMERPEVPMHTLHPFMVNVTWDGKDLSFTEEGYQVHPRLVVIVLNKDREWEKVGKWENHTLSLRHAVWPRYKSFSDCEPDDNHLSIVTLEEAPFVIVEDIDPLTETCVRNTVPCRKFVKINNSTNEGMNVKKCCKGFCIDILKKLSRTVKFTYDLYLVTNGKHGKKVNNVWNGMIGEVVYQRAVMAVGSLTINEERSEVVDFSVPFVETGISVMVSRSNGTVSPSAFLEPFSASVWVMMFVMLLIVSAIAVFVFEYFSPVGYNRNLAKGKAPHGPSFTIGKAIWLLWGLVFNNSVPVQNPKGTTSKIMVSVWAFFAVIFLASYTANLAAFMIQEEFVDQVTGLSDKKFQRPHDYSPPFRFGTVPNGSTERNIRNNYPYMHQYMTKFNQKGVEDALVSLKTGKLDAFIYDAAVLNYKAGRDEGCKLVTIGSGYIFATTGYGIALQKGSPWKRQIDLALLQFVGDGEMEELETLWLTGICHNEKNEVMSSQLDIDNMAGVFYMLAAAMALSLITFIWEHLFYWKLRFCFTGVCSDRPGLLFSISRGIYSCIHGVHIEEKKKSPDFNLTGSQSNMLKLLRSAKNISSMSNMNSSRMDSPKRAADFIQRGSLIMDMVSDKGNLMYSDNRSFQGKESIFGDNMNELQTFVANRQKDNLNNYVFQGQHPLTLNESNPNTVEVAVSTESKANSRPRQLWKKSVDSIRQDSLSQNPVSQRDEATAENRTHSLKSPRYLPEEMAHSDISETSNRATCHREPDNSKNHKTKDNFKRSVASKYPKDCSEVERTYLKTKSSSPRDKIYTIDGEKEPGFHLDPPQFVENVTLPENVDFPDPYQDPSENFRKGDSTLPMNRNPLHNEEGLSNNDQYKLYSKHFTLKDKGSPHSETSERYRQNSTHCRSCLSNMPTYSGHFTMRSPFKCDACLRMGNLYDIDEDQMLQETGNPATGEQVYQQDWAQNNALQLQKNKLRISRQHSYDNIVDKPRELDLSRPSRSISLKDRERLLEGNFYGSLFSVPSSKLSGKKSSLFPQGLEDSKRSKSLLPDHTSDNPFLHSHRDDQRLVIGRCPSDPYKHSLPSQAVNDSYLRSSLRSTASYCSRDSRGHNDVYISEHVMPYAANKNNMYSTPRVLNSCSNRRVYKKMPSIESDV
Outline: as §1

[5] = molecular target: T3, NMDAR2C (Homo sapiens, UniProt Q14957); assay: [3H]MK-801 binding, NMDAR2C expressing HEK cell membranes; assay type: biochemical; details: 50 μM glutamate; for EC50: read-out: NMDAR2C B: log EC50 (converted)
T3 construct: expressed in transfected cells; host or cells: HEK cells (membrane extract)
T3 sequence (Q14957 20-1233, species assumed, other chains not shown): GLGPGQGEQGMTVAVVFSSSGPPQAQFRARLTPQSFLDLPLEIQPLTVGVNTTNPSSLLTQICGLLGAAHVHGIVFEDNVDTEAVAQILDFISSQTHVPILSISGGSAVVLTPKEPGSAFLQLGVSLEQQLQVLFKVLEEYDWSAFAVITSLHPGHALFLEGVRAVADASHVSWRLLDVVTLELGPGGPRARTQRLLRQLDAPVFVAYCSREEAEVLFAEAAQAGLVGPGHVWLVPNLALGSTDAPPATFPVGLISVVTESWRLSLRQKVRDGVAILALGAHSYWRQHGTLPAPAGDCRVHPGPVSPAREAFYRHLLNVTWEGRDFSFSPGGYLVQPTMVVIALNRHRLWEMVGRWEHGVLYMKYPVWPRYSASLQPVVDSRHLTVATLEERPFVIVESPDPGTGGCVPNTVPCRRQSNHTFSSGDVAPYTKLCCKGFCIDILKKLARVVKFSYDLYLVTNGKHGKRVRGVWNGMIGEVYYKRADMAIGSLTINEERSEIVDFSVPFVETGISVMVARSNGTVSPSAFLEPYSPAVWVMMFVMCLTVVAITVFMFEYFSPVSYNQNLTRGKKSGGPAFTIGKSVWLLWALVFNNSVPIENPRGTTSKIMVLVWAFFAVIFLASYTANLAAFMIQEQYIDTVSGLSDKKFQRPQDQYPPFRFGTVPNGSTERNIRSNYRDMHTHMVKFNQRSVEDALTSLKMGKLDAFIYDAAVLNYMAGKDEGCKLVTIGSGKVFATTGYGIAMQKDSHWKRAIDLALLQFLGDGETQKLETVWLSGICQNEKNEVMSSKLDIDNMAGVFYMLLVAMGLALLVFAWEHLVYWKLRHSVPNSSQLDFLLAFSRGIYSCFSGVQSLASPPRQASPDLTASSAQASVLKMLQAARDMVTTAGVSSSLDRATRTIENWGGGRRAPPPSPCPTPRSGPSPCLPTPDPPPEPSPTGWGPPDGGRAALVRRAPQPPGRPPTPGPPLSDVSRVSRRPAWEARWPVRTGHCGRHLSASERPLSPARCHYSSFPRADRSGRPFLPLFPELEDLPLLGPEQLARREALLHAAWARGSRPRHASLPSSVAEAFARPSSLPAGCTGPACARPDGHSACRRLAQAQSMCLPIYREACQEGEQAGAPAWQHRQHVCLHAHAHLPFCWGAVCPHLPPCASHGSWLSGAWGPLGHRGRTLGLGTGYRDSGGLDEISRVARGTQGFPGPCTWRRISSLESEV
Description: (§2) Assays were conducted as described by Moskal et al., “GLYX-13: a monoclonal antibody-derived peptide that acts as an N-methyl-D-aspartate receptor modulator,” Neuropharmacology, 49, 1077-87, 2005. These studies were designed to determine if the test compounds act to facilitate NMDAR activation in NMDAR2A, NMDAR2B, NMDAR2C or NMDAR2D expressing HEK cell membranes as measured by increases in [^3H]MK-801 binding.
(§3) In the assay, 300 μg of NMDAR expressing HEK cell membrane extract protein was preincubated for 15 minutes at 25° C. in the presence of saturating concentrations of glutamate (50 μM) and varying concentrations of test compound (1×10^−15M−1×10^−7M), or 1 mM glycine. Following the addition of 0.3 μCi of [^3H]MK-801 (22.5 Ci/mmol), reactions were again incubated for 15 minutes at 25° C. (nonequilibrium conditions). Bound and free [^3H]MK-801 were separated via rapid filtration using a Brandel apparatus.
(§4) In analyzing the data, the DPM (disintegrations per minute) of [^3H]MK-801 remaining on the filter were measured for each concentration of test compound or for 1 mM glycine. The DPM values for each concentration of a ligand (N=2) were averaged. The baseline value was determined from the best fit curve of the DPM values modeled using the GraphPad program and the log(agonist) vs. response(three parameters) algorithm was then subtracted from all points in the dataset. The % maximal [^3H]MK-801 binding was then calculated relative to that of 1 mM glycine: all baseline subtracted DPM values were divided by the average value for 1 mM glycine. The EC50 and % maximal activity were then obtained from the best fit curve of the % maximal [^3H]MK-801 binding data modelled using the GraphPad program and the log(agonist) vs. response(three parameters) algorithm.
(§5) The tables below summarize the results for the wild type NMDAR agonists NMDAR2A, NMDAR2B, NMDAR2C, and NMDAR2D, and whether the compound is not an agonist (−), is an agonist (+), or is a strong agonist (++), where column A is based on the % maximal [^3H]MK-801 binding relative to 1 mM glycine (−=0; <100%=+; and >100%=++); and column B is based on log EC50 values (0=−; ≥1×10^−9M (e.g., −8)=+; and <1×10^−9M (e.g., −10)=++).

[6] = molecular target: T4, NMDAR2D (Homo sapiens, UniProt O15399); assay: [3H]MK-801 binding, NMDAR2D expressing HEK cell membranes; assay type: biochemical; details: 50 μM glutamate
T4 construct: expressed in transfected cells; host or cells: HEK cells (membrane extract)
Description: as §2, §3, §4, §5

[7] = IV pharmacokinetics; assay type: in vivo, Sprague Dawley rats; details: rat, 2 mg/kg, normal saline (compounds marked * in 1% NMP and 99% normal saline); for Vd: read-out: Vss
Text: The table below summarizes the results of the IV pharmacokinetics.

[8] = molecular target: T5, NMDAR2D (Homo sapiens, UniProt O15399+Q05586); assay: [3H]MK-801 binding, NMDAR2D expressing HEK cell membranes; assay type: biochemical; details: 50 μM glutamate, read-out: NMDAR2D B: log EC50 (converted)
T5 construct: expressed in transfected cells; host or cells: HEK cells (membrane extract)
Description: as §2, §3, §4, §5

[9] = normal saline (compounds marked * in 1% NMP and 99% normal saline)
[10] = plasma, normal saline (compounds marked * in 1% NMP and 99% normal saline)
[11] = Sprague Dawley, plasma, po, Tmax, normal saline (compounds marked * in 1% NMP and 99% normal saline)
[12] = Sprague Dawley, in vivo, iv, read-out: C0

C[C@@H](O)[C@H](N)C(=O)N1CCNC2(CNC2=O)C1 (single isomer, unassigned) [EK-2, 8-(L-Threonyl)-2,5,8-Triazaspiro[3.5]Nonan-1-One]
Max Effect (mean number of 50 kHz USVs per 15 seconds) ([1]; dose .1 mg/kg): * (*: 6.0-7.6)
NMDAR2B A: % maximal [3H]MK-801 binding relative to 1 mM glycine [2]: + (<100%=+)
EC50 [2]: < 1 nM
CSF Cmax [3]: 81.6 ng/mL
Tmax [3, 9]: 60 min
Cmax [3, 10]: 1910.5 ng/mL
Emax [4]: < 100%
EC50 [4]: > 1 nM

CN1CCN(Cc2ccccc2)C2(CNC2=O)C1 (single isomer, unassigned) [EG-1, 5-Benzyl-8-Methyl-2,5,8-Triazaspiro[3.5]Nonan-1-One]
Max Effect (mean number of 50 kHz USVs per 15 seconds) ([1]; dose .001-1 mg/kg): *** (***: 10.1-20)
NMDAR2C A: % maximal [3H]MK-801 binding relative to 1 mM glycine [5]: ++ (>100%=++)
EC50 [5]: > 1 nM
NMDAR2B A: % maximal [3H]MK-801 binding relative to 1 mM glycine [2]: + (<100%=+)
EC50 [2]: < 1 nM
% F [3]: 14%
CSF Cmax [3]: 367.18 ng/mL
Brain Cmax [3]: 334.3 ng/mL
AUClast [3, 9]: 428.79 ng·h/mL
Tmax [3, 9]: 15 min
Cmax [3, 10]: 700.4 ng/mL
NMDAR2D A: % maximal [3H]MK-801 binding relative to 1 mM glycine [6]: − (−=0)
NMDAR2A A: % maximal [3H]MK-801 binding relative to 1 mM glycine [4]: + (<100%=+)
EC50 [4]: < 1 nM
AUClast [7]: 622.05 ng·h/mL
C0 [7]: 2010.43 ng/mL
Cl [7]: 53.51 mL/min/kg
T1/2 [7]: 25.8 min
Vss [7]: 0.96 L/kg

C[C@@H](O)[C@H](N)C(=O)N1CCN(Cc2ccccc2)C2(CNC2=O)C1 (single isomer, unassigned) [EL-1, 8-(L-Threonyl)-5-Benzyl-2,5,8-Triazaspiro[3.5]Nonan-1-One]
Max Effect (mean number of 50 kHz USVs per 15 seconds) ([1]; dose .1 mg/kg): *** (***: 10.1-20)
Emax [2]: < 100%
EC50 [2]: < 1 nM
bioavailability ([3]; Sprague Dawley, plasma, po, % F): 90%
AUC(0-t) ([3]; Sprague Dawley, plasma, po, AUClast, normal saline (compounds marked * in 1% NMP and 99% normal saline)): 19400 ng·h/mL
Cmax ([3]; Sprague Dawley, plasma, po, Cmax, normal saline (compounds marked * in 1% NMP and 99% normal saline)): 4980 ng/mL
Tmax [3, 11]: 30 min
CSF Cmax [3]: 56.9 ng/mL
Brain Cmax [3]: 143 ng/mL
Emax [4]: 0%
AUC(0-t) ([7]; Sprague Dawley, in vivo, iv): 4320 ng·h/mL
clearance ([7]; Sprague Dawley, in vivo, iv): 7.35 mL/min/kg
half-life ([7]; Sprague Dawley, in vivo, iv): 406 min
C0 [7, 12]: 3250 ng/mL
Vd ([7]; Sprague Dawley, in vivo, iv): 2.12 L/kg

O=C1NCC12CNCCN2Cc1ccccc1 (single isomer, unassigned) [ED-2, 5-Benzyl-2,5,8-Triazaspiro[3.5]Nonan-1-One]
Max Effect (mean number of 50 kHz USVs per 15 seconds) ([1]; dose .001-1 mg/kg): *** (***: 10.1-20)
NMDAR2C A: % maximal [3H]MK-801 binding relative to 1 mM glycine [5]: + (<100%=+)
EC50 [5]: < 1 nM
NMDAR2B A: % maximal [3H]MK-801 binding relative to 1 mM glycine [2]: + (<100%=+)
EC50 [2]: < 1 nM
% F [3]: 54%
CSF Cmax [3]: 178.3 ng/mL
Brain Cmax [3]: 478.5 ng/mL
AUClast [3, 9]: 2178.53 ng·h/mL
Tmax [3, 9]: 15 min
Cmax [3, 10]: 1563.1 ng/mL
NMDAR2D A: % maximal [3H]MK-801 binding relative to 1 mM glycine [6]: + (<100%=+)
EC50 ([6]; read-out: NMDAR2D B: log EC50 (converted)): < 1 nM
NMDAR2A A: % maximal [3H]MK-801 binding relative to 1 mM glycine [4]: − (−=0)
AUClast [7]: 806.5 ng·h/mL
C0 [7]: 1793.2 ng/mL
Cl [7]: 40.6 mL/min/kg
T1/2 [7]: 32.4 min
Vss [7]: 1.45 L/kg

CN1CCN(Cc2ccccc2)C2(CNC2=O)C1 (single isomer, unassigned) [EG-2, 5-Benzyl-8-Methyl-2,5,8-Triazaspiro[3.5]Nonan-1-One]
NMDAR2C A: % maximal [3H]MK-801 binding relative to 1 mM glycine [5]: + (<100%=+)
EC50 [5]: < 1 nM
NMDAR2B A: % maximal [3H]MK-801 binding relative to 1 mM glycine [2]: − (−=0)
Tmax [3, 11]: 15 min
% F [3]: 100%
AUClast [3, 9]: 3082.39 ng·h/mL
Cmax [3, 10]: 3526.63 ng/mL
NMDAR2D A: % maximal [3H]MK-801 binding relative to 1 mM glycine [6]: + (<100%=+)
EC50 [8]: < 1 nM
NMDAR2A A: % maximal [3H]MK-801 binding relative to 1 mM glycine [4]: − (−=0)
AUC(0-t) ([7]; Sprague Dawley, in vivo, iv): 400 ng·h/mL
clearance ([7]; Sprague Dawley, in vivo, iv): 83.3 mL/min/kg
half-life ([7]; Sprague Dawley, in vivo, iv): 28.8 min
C0 [7, 12]: 1100 ng/mL
Vd ([7]; Sprague Dawley, in vivo, iv): 1.87 L/kg

C[C@@H](O)[C@H](N)C(=O)N1CCN(C(=O)OC(C)(C)C)CC12CNC2=O (stereo partly drawn) [EC-2, Tert-Butyl 5-(L-Threonyl)-1-Oxo-2,5,8-Triazaspiro[3.5]Nonane-8-Carboxylate]
Max Effect (mean number of 50 kHz USVs per 15 seconds) ([1]; dose .1 mg/kg): ** (**: 7.7-10)
Emax [2]: > 100%
EC50 [2]: < 1 nM
Emax [4]: < 100%
EC50 [4]: > 1 nM

— US20230131402A1, “SPIRO-LACTAM NMDA RECEPTOR MODULATORS AND USES THEREOF” (Aptinyx Inc., priority 2016, published 2023)
